Literature values, collected in patent publication US11555010B2, “Diamide antimicrobial agents” (BROWN UNIVERSITY, priority 2019, dated 2023).

System: LT
Details: cited from earlier work

CC1=N[C@@H]2[C@@H](O)[C@H](O)[C@@H](CO)O[C@@H]2S1 [NAG-thiazoline]
binding to LT: weak binder
